In ChEMBL document CHEMBL3046810, “Total synthesis of cis-solamin and its inhibitory action with bovine heart mitochondrial complex I” (Tetrahedron, 2004):

What follows are molecules tested against NADH-ubiquinone oxidoreductase chain 1 (Bos taurus, UniProt P03887) (assay: Inhibition of Bos taurus (bovine) mitochodrial complex 1 isolated from heart submitochondrial particle by NADH oxidase assay).
Chain of NADH-ubiquinone oxidoreductase chain 1 (P03887 whole entry): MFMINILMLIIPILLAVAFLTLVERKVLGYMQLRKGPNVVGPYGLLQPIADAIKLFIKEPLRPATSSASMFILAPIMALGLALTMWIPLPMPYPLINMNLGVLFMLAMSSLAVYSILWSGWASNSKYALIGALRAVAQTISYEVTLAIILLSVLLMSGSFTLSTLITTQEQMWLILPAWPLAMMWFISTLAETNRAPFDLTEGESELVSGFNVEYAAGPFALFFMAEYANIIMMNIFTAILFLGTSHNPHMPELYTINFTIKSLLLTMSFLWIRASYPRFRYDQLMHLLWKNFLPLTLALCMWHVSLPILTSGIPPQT
CCCCCCCCCCCC[C@H](O)[C@@H]1CC[C@H]([C@H](O)CCCCCCCCCCCCC2=C[C@H](C)OC2=O)O1 (stereo in doubt; 1a) [CIS-SOLAMIN] gave an IC50 of 2.2 nM. In the case of CCCCCCCCCCCC[C@H](O)[C@@H]1CC[C@H]([C@H](O)CCCCCCCCCCCCC2=C[C@H](C)OC2=O)O1 (stereo in doubt; 1b) [CIS-SOLAMIN], the IC50 is reported as 2.1 nM. CCCCCCCCCCCC[C@@H](O)[C@H]1CC[C@H]([C@H](O)CCCC[C@@H](O)CCCCCCCC2=C[C@H](C)OC2=O)O1 [(10S)-COROSSOLINE] was tested, and the IC50 was 2 nM. Molecule CCCCCCCCCCCC[C@H](O)[C@H]1CC[C@H]([C@H](O)CCCCCCCCCCCCCCC2=C[C@H](C)OC2=O)O1 [(17R,18R,21R,22S)-reticulation-1] has an IC50 of 16 nM. Work on CCCCCCCCCCCC[C@@H](O)[C@H]1CC[C@H]([C@@H](O)CCCCCCCCCCCCCCC2=C[C@H](C)OC2=O)O1 [(17S, 18S, 21S, 22R)-reticulation-1] yielded an IC50 of 17 nM. Work on CCCCCCCCCC[C@H](O)[C@H]1CC[C@H]([C@H]2CC[C@H]([C@H](O)CCCCCCCCCC[C@@H](O)CC3=C[C@H](C)OC3=O)O2)O1 [BULLATACIN] yielded an IC50 of 0.8 nM. With CCCCCCCCCCCC[C@@H](O)[C@H]1CC[C@H]([C@H](O)CCCC[C@H](O)CCCCCCCC2=C[C@H](C)OC2=O)O1 [COROSSOLINE] the IC50 was 1.5 nM.
